# Calls of active or inactive are those of the source. The rule behind the calls is not given here.
# Legend:
# P2Y purinoceptor 6 = P2Y purinoceptor 6 (Homo sapiens, UniProt Q15077); assay: Agonist activity at human P2Y6 receptor expressed in human 1321N1 cells assessed as induction of calcium mobilization by FLIPR method; format: functional, cell-based
# [1] = target: T1, P2Y purinoceptor 14 (Homo sapiens) (UniProt Q15391); assay: Agonist activity at human P2Y14 receptor expressed in human 1321N1 cells assessed as induction of calcium mobilization at 10 uM measured over 2 mins by Fluo-4 dye-based FLIPR method relative to control; format: functional, cell-based
# T1 sequence (whole entry): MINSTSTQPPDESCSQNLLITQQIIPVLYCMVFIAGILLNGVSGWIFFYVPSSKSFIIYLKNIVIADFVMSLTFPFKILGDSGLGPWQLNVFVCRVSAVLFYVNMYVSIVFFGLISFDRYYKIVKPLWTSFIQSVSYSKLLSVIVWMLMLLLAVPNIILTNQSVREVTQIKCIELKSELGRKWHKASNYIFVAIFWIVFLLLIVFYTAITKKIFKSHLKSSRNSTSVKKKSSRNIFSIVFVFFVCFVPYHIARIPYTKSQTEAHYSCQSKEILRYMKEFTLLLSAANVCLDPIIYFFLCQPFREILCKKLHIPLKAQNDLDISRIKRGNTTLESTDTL
# [2] = Half life in human 1321N1 cell membranes; format: ADME, cell-based
# [3] = target: P2Y purinoceptor 1 (Homo sapiens) (UniProt P47900); assay: Agonist activity at human P2Y1 receptor expressed in human 1321N1 cells assessed as induction of calcium mobilization at 10 uM measured over 2 mins by Fluo-4 dye-based FLIPR method relative to control; format: functional, cell-based
# P2Y purinoceptor 1 (Homo sapiens), sequence (P47900 whole entry): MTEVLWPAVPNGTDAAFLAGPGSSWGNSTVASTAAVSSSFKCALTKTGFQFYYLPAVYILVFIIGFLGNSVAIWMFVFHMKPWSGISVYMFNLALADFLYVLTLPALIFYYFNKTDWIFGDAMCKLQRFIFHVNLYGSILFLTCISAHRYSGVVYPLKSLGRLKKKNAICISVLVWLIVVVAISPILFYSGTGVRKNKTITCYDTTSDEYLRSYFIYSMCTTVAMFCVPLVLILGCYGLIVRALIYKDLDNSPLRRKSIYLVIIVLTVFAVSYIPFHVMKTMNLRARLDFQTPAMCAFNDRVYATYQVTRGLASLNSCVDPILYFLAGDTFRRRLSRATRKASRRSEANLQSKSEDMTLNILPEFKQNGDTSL
# [4] = target: T2, P2Y purinoceptor 11 (Homo sapiens) (UniProt Q96G91); assay: Antagonist activity at human P2Y11 receptor expressed in human 1321N1 cells assessed as inhibition of calcium mobilization at 10 uM measured over 2 mins by Fluo-4 dye-based FLIPR method relative to control; format: functional, cell-based
# T2 sequence (whole entry): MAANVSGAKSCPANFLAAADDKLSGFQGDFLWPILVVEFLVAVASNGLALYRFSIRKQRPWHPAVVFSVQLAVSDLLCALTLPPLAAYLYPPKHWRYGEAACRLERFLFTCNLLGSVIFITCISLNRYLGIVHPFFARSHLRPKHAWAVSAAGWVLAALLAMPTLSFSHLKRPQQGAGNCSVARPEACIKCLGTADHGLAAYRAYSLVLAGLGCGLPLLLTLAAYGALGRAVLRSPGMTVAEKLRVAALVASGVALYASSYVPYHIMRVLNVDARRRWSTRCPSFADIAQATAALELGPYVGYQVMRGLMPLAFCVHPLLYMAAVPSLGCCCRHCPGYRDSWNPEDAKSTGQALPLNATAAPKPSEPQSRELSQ
# [5] = target: P2Y purinoceptor 2 (Homo sapiens) (UniProt P41231); assay: Antagonist activity at human P2Y2 receptor expressed in human 1321N1 cells assessed as inhibition of calcium mobilization at 10 uM measured over 2 mins by Fluo-4 dye-based FLIPR method relative to control; format: functional, cell-based
# P2Y purinoceptor 2 (Homo sapiens), sequence (P41231 whole entry): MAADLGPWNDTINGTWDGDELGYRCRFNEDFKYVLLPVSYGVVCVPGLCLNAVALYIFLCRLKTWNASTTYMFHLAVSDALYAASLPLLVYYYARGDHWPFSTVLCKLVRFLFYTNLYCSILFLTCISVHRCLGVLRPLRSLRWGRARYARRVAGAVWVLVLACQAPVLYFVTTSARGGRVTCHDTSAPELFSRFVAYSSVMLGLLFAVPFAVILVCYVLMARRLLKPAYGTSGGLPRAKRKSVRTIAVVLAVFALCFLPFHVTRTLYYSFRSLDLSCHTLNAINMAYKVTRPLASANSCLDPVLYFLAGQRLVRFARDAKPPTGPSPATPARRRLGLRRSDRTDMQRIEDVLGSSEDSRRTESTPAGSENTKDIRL
# [6] = target: P2Y purinoceptor 2 (Homo sapiens) (UniProt P41231); assay: Agonist activity at human P2Y2 receptor expressed in human 1321N1 cells assessed as induction of calcium mobilization at 10 uM measured over 2 mins by Fluo-4 dye-based FLIPR method relative to control; format: functional, cell-based
# [7] = target: P2Y purinoceptor 4 (Homo sapiens) (UniProt P51582); assay: Agonist activity at human P2Y4 receptor expressed in human 1321N1 cells assessed as induction of calcium mobilization at 10 uM measured over 2 mins by Fluo-4 dye-based FLIPR method relative to control; format: functional, cell-based
# P2Y purinoceptor 4 (Homo sapiens), sequence (P51582 whole entry): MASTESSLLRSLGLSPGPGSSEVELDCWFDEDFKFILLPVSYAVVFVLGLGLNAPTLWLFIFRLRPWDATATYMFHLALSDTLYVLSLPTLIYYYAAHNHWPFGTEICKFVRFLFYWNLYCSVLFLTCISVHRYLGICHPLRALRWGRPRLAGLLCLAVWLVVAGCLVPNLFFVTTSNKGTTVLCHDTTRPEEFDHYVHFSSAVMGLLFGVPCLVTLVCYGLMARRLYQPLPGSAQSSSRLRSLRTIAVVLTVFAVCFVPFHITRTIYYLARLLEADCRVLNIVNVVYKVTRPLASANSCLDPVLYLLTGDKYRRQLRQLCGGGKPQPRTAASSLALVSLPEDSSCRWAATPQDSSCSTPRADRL
# [8] = target: P2Y purinoceptor 4 (Homo sapiens) (UniProt P51582); assay: Antagonist activity at human P2Y4 receptor expressed in human 1321N1 cells assessed as inhibition of calcium mobilization at 10 uM measured over 2 mins by Fluo-4 dye-based FLIPR method relative to control; format: functional, cell-based
# [9] = target: P2Y purinoceptor 1 (Homo sapiens) (UniProt P47900); assay: Antagonist activity at human P2Y1 receptor expressed in human 1321N1 cells assessed as inhibition of calcium mobilization at 10 uM measured over 2 mins by Fluo-4 dye-based FLIPR method relative to control; format: functional, cell-based
# P2Y purinoceptor 6, sequence (Q15077 whole entry): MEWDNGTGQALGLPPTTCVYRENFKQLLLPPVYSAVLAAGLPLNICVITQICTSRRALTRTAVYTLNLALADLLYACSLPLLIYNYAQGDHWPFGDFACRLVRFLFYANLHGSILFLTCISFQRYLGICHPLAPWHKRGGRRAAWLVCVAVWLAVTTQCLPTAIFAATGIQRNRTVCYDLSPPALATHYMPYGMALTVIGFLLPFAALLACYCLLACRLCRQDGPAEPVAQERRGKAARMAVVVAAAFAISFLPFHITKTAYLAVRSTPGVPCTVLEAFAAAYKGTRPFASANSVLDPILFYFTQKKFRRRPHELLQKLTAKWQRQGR
structure (smiles),measurement,setting,value
O=c1ccn([C@]23C[C@H]2[C@H](COP(=O)(O)OP(=O)(O)O)[C@@H](O)[C@H]3O)c(=O)[nH]1,EC50,P2Y purinoceptor 6,438 nM
same,Activity,[1],inactive
CO/N=c1/ccn([C@@H]2O[C@H](COP(=O)(O)OP(=O)(O)O)[C@@H](O)[C@H]2O)c(=O)[nH]1,half-life,[2],55 min
O=c1[nH]/c(=N\OCc2ccccc2)ccn1[C@@H]1O[C@H](COP(=O)(O)CP(=O)(O)O)[C@@H](O)[C@H]1O,EC50,P2Y purinoceptor 6,2360 nM
O=c1[nH]c(=O)n([C@@H]2O[C@H](COP(=O)(O)OP(=O)(O)O)[C@@H](O)[C@H]2O)cc1I,EC50,P2Y purinoceptor 6,49.1 nM
CO/N=c1/ccn([C@]23C[C@H]2[C@H](COP(=O)(O)OP(=O)(O)O)[C@@H](O)[C@H]3O)c(=O)[nH]1,%max,[3],-0.5%
same,Imax,[4],-3.9%
same,EC50,P2Y purinoceptor 6,493 nM
same,Imax,[5],16.8%
same,%max,[6],8.9%
same,%max,[7],2.2%
same,Imax,[8],10%
same,Imax,[9],17%
O=c1ccn([C@]23C[C@H]2[C@H](COP(=O)(O)CP(=O)(O)O)[C@@H](O)[C@H]3O)c(=O)[nH]1,EC50,P2Y purinoceptor 6,47100 nM
CO/N=c1/ccn([C@]23C[C@H]2[C@H](COP(=O)(O)OP(=O)(O)OP(=O)(O)OC[C@H]2O[C@@H](n4ccc(=O)[nH]c4=O)[C@H](O)[C@@H]2O)[C@@H](O)[C@H]3O)c(=O)[nH]1,%max,[3],-0.6%
same,Imax,[4],0.1%
same,EC50,P2Y purinoceptor 6,4120 nM
same,Imax,[5],40.3%
same,%max,[6],16%
same,%max,[7],10.2%
same,Imax,[8],25%
same,Imax,[9],56.8%
O=c1ccn([C@@H]2O[C@H](COP(=O)(O)OP(=O)(O)O)[C@@H](O)[C@H]2O)c(=O)[nH]1,EC50,P2Y purinoceptor 6,132 nM
O=c1[nH]c(=O)n([C@]23C[C@H]2[C@H](COP(=O)(O)OP(=O)(O)O)[C@@H](O)[C@H]3O)cc1I,EC50,P2Y purinoceptor 6,440 nM
CO/N=c1/ccn([C@@H]2O[C@H](COP(=O)(O)CP(=O)(O)O)[C@@H](O)[C@H]2O)c(=O)[nH]1,EC50,P2Y purinoceptor 6,420 nM
CCN(CC)CC.CCN(CC)CC.CO/N=c1/ccn([C@@H]2O[C@H](COP(=O)(O)OP(=O)(O)OP(=O)(O)OC[C@H]3O[C@@H](n4ccc(=O)[nH]c4=O)[C@H](O)[C@@H]3O)[C@@H](O)[C@H]2O)c(=O)[nH]1,EC50,P2Y purinoceptor 6,1200 nM
same,half-life,[2],23 min
O=c1[nH]/c(=N\OCc2ccccc2)ccn1[C@]12C[C@H]1[C@H](COP(=O)(O)OP(=O)(O)O)[C@@H](O)[C@H]2O,EC50,P2Y purinoceptor 6,793 nM
CO/N=c1/ccn([C@]23C[C@H]2[C@H](COP(=O)(O)OP(=O)(O)OP(=O)(O)OC[C@@]24C[C@@H]2[C@@H](n2ccc(=O)[nH]c2=O)[C@H](O)[C@@H]4O)[C@@H](O)[C@H]3O)c(=O)[nH]1,EC50,P2Y purinoceptor 6,705 nM
CO/N=c1/ccn([C@]23C[C@H]2[C@H](COP(=O)(O)OP(=O)(O)OP(=O)(O)OC[C@@H]2[C@@H](O)[C@@H](O)[C@@]4(n5ccc(=O)[nH]c5=O)C[C@@H]24)[C@@H](O)[C@H]3O)c(=O)[nH]1,EC50,P2Y purinoceptor 6,6900 nM
O=c1[nH]/c(=N\OCc2ccccc2)ccn1[C@]12C[C@H]1[C@H](COP(=O)(O)CP(=O)(O)O)[C@@H](O)[C@H]2O,EC50,P2Y purinoceptor 6,4960 nM
CO/N=c1/ccn([C@]23C[C@H]2[C@H](COP(=O)(O)OP(=O)(O)OP(=O)(O)OC[C@@H]2[C@@H](O)[C@@H](O)[C@@]4(n5cc/c(=N/OC)[nH]c5=O)C[C@@H]24)[C@@H](O)[C@H]3O)c(=O)[nH]1,EC50,P2Y purinoceptor 6,5490 nM
CO/N=c1/ccn([C@]23C[C@H]2[C@H](COP(=O)(O)CP(=O)(O)O)[C@@H](O)[C@H]3O)c(=O)[nH]1,EC50,P2Y purinoceptor 6,6290 nM

# From ChEMBL document CHEMBL4261568, “Pyrimidine Nucleotides Containing a (S)-Methanocarba Ring as P2Y6 Receptor Agonists” (Medchemcomm, 2017)
